Test systems include HOP-18; MCF7; SNB-78; ACHN; BT-549; MDA-MB-231; LXFL 529; 786-0; RXF 631.
Assay in all cases: NCI anticancer screen, dose series, 48 h

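Test compounds were applied to cells in 96-well plates for 48 hours at 5 doses. GI50 = concentration required for 50% inhibition of growth.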 The source made the active and inactive calls. Cut-off read from the data, not from the text of the source: active = GI50 up to about 1.1 µM and inactive = higher. Some results are limits rather than exact numbers.

On to `O=C(O)c1cn2c3c(cc(N4CCN(CCO)CC4)cc3c1=O)SCC2`, for which the GI50 is > 79.3 µM (inactive) in the assay with HOP-18, 29.7 µM (inactive) with MCF7 and > 79.8 µM (inactive) in the assay with SNB-78.

Regarding `Cc1ccc(C2=C(C#N)C(N)OC3=C2COc2ccccc23)cc1` (centres undefined), the GI50 in the assay on ACHN is 35.2 µM (inactive); in the assay with BT-549, > 100 µM (inactive); in the assay with MCF7 it was > 100 µM (inactive); in the assay with MDA-MB-231, 23.7 µM (inactive).

Consider `O=C(N/C=C1\C(=O)Oc2ccccc2C1=O)NC1CCCCC1`, for which the GI50 was 30.5 µM (inactive) with ACHN, 63.1 µM (inactive) in the assay on LXFL 529 and 22.9 µM (inactive) in the assay on SNB-78.

For `O=Cc1c(Cn2ccnc2)c2cc([N+](=O)[O-])ccc2n1Cc1ccccc1`, the GI50 is > 25.8 µM (inactive) with HOP-18, 75.3 µM (inactive) in the assay on MCF7 and > 72.4 µM (inactive) with SNB-78.

Take `C=C1C(=O)OC2/C=C(\C(=O)O)CC/C=C(\C)CC(OC(=O)/C=C(\C)CC)C12` (centres undefined): the GI50 with ACHN is 17 µM (inactive); in the assay on HOP-18, 21.7 µM (inactive); in the assay on LXFL 529, 16.9 µM (inactive); in the assay on SNB-78, 23 µM (inactive).

Consider `CCOC(=O)c1c(NC(=O)Nc2ccccc2)c(C(N)=O)c2n1CCCCC2`, for which the GI50 with 786-0, in the assay on ACHN, with BT-549, in the assay with MCF7 and in the assay with MDA-MB-231 was > 100 µM (inactive) throughout.

Turning to `CCOC(=O)[C@H]1Nc2ccc(Cl)cc2[C@H]2c3ccccc3O[C@H]21`, the GI50 with 786-0 was > 100 µM (inactive); in the assay on ACHN, > 100 µM (inactive); in the assay with HOP-18 it was > 100 µM (inactive); in the assay with LXFL 529, 32.1 µM (inactive); with RXF 631 it was > 100 µM (inactive); in the assay with SNB-78, > 100 µM (inactive).

Take `CCOC(=O)c1ccc(Nc2nc3cc(C(F)(F)F)ccc3nc2C(=O)OCC)cc1`: the GI50 in the assay on 786-0 was 25.4 µM (inactive); in the assay on ACHN, 42 µM (inactive); in the assay on BT-549, 72.6 µM (inactive); in the assay on MCF7, > 100 µM (inactive); with MDA-MB-231, 74.5 µM (inactive).

`O=S(=O)(O)c1ccc(/N=N\c2ccc(/N=N\c3ccc(/C=C/c4ccc(/N=[N+](/[O-])c5ccc(/C=C/c6ccc(/N=N/c7ccc(/N=N\c8ccc(S(=O)(=O)O)cc8)cc7)cc6S(=O)(=O)O)c(S(=O)(=O)O)c5)cc4S(=O)(=O)O)c(S(=O)(=O)O)c3)cc2)cc1`: the GI50 with HOP-18 and in the assay on MCF7 was > 100 µM (inactive) throughout.

As for `COC(=O)C1C(O)C(C)C(O)OC1C(C)C(O)C(C)/C=C\C=C(/C)C(=O)Nc1c(C)c(OC(C)=O)c2c(c1O)C(=O)C(C)=C1OCOC(/C(C)=C/C(C)=O)=C12` (centres undefined), the GI50 with HOP-18 was 15.2 µM (inactive); with MCF7, 13.9 µM (inactive); in the assay with SNB-78, 13.2 µM (inactive).

Turning to `Nc1ccn(C2OC(CO)C(O)C2(F)F)c(=O)n1` (centres undefined), the GI50 is 0.055 µM (active) with 786-0, 0.33 µM (active) in the assay with BT-549, 0.0847 µM (active) with MCF7 and 0.828 µM (active) in the assay on MDA-MB-231.

Turning to `OC(c1cccnc1Cl)c1nc2ccccc2c2ccnc(Cl)c12` (centres undefined), the GI50 was 9.91 µM (inactive) in the assay on ACHN, 5.79 µM (inactive) with BT-549, 3.04 µM (inactive) in the assay with MCF7 and 7.82 µM (inactive) with MDA-MB-231.

With `COc1cc(C2S/C(=C/c3ccccc3)C(=O)N2c2cccc(NC(C)=O)c2)cc(OC)c1OC` (centres undefined), the GI50 with ACHN is 37.2 µM (inactive); in the assay on BT-549, 24.7 µM (inactive); in the assay with MCF7 it was 26.1 µM (inactive); in the assay with MDA-MB-231, 13.9 µM (inactive).

As for `Cc1cc(O)c(C(C)C)cc1SC#N`, the GI50 was 16.2 µM (inactive) with ACHN, 19.6 µM (inactive) with BT-549, 14.9 µM (inactive) in the assay with MCF7 and 18.5 µM (inactive) in the assay on MDA-MB-231.

`c1ccc2c(c1)N=C(NC1CCCCC1)CCN2`: the GI50 in the assay with 786-0, with ACHN, with BT-549 and in the assay on MDA-MB-231 was > 100 µM (inactive) each time.

On to `CCCCCCCCCCCCCCCCNCC(O)CN` (centres undefined), for which the GI50 with HOP-18 is 5.46 µM (inactive); with MCF7, 2.36 µM (inactive); in the assay on SNB-78, 2.48 µM (inactive).

`CCOP(=O)(COCCn1nc(Br)c(=O)[nH]c1=O)OCC`: the GI50 with ACHN, in the assay on MCF7 and in the assay on MDA-MB-231 was > 100 µM (inactive) each time.

Turning to `CC(C)=CC1CC(=O)C1(C)Sc1ccccc1` (centres undefined), the GI50 in the assay on 786-0 is 50.7 µM (inactive); with ACHN, > 100 µM (inactive); in the assay on HOP-18, > 100 µM (inactive); with LXFL 529 it was 42.7 µM (inactive); in the assay with RXF 631, 28 µM (inactive); in the assay with SNB-78 it was 60.1 µM (inactive).

With `CC(=O)OC[C@H]1[C@@H]2C(CC[C@]13CO3)OC(=O)CC(C)[C@]2(C)CCc1ccoc1` (some centres undefined), the GI50 in the assay with ACHN, with BT-549, with MCF7 and in the assay on MDA-MB-231 was > 100 µM (inactive) each time.

Take `CN1C[C@H]2[C@@H](C1=O)[C@H](c1ccc([N+](=O)[O-])cc1)ON2C`: the GI50 in the assay on ACHN, in the assay with MCF7 and in the assay on MDA-MB-231 was > 100 µM (inactive) throughout.

On to `O=S(=O)(c1ccccc1)C1CC(c2nc3ccccc3[nH]2)=NO1` (centres undefined), for which the GI50 in the assay on ACHN was > 100 µM (inactive); in the assay with BT-549, > 100 µM (inactive); with MCF7, 53.3 µM (inactive); in the assay on MDA-MB-231, > 100 µM (inactive).

As to `CC[C@@]1(O)C[C@H](OC2CC(N(C)C)C(O)C(C)O2)c2c(cc3c(c2O)C(=O)c2c(O)ccc(O)c2C3=O)[C@H]1C(=O)OC` (some centres undefined), the GI50 in the assay on HOP-18 is 0.212 µM (active); with MCF7, 0.0885 µM (active); in the assay on SNB-78, 0.153 µM (active).

Regarding `COc1cc(O)c2c(c1)C(=O)c1cc3c(c(O)c1C2=O)C(OC1OC(C)C(O)C(O)C1OC)C(OC)C(C)(O)C3=O` (centres undefined), the GI50 was 5.16 µM (inactive) in the assay on HOP-18, 2.54 µM (inactive) with MCF7 and 3.76 µM (inactive) in the assay with SNB-78.

Take `O=C(O)C1=C(CO)Oc2cc3c(cc2C1c1ccc2c(c1)OCO2)OCO3` (centres undefined): the GI50 with ACHN, with HOP-18, in the assay on RXF 631 and in the assay with SNB-78 was > 100 µM (inactive) throughout.

With `C=CC1OC(CCCOC(=O)C(C)(C)C)O[C@@H]1CC` (some centres undefined), the GI50 with ACHN, with MCF7 and in the assay with MDA-MB-231 was > 100 µM (inactive) in each case.

Consider `O=C(NC(Cc1ccc(I)cc1)C(=O)O)c1ccc(Cl)cc1` (centres undefined), for which the GI50 in the assay on HOP-18 is > 100 µM (inactive); in the assay on MCF7, 37.8 µM (inactive); in the assay on SNB-78, > 100 µM (inactive).

`CCN1c2ccccc2NC(=S)c2c(-c3ccccc3)n[nH]c21`: the GI50 is 37.2 µM (inactive) in the assay with ACHN, 45.5 µM (inactive) in the assay on BT-549, 22.4 µM (inactive) in the assay on MCF7 and 19.3 µM (inactive) in the assay with MDA-MB-231.

Regarding `O=C(Nc1ccc(Cl)cc1)C(=O)C(C(=O)c1ccccc1-c1ccccc1)C1OC(=O)c2ccccc21` (centres undefined), the GI50 in the assay with ACHN was 32.4 µM (inactive); with LXFL 529 it was 16 µM (inactive); in the assay with SNB-78, > 100 µM (inactive).

The values are drawn from ChEMBL document CHEMBL1201862, “PubChem BioAssay data set” (2004).
